The compounds below were run against Recombinant MAPKAPK2 (Homo sapiens, UniProt P49137) (assay: Determination of MK-2 IC50 (HSP-peptide phosphorylation, anion exchange resin capture assay)). Settings: MK-2 Avg. IC50, Table 2, tricyclic aminocyanopyridine MK-2 inhibitors.
Type: biochemical
Procedure: The phosphorylation of HSP-peptide ([…]) by MAPKAPK2 was measured using an anion exchange resin capture assay method. […] The reaction was terminated and [γ^33P]ATP was removed from solution by the addition of 150 μl of AG 1×8 ion exchange resin in 900 mM sodium formate pH 3.0. A 50 μl aliquot of head volume was removed from the quenched reaction mixture and added to a 96-well plate, 150 μl of Microscint-40 (Packard) was added and the amount of phosphorylated-peptide was determined. Allow the Microscint to sit in the plates for 60 minutes prior to counting.
Compounds are evaluated as potential inhibitors of the MK2 kinase by measuring their effects on MK2 phosphorylation of the peptide substrate. Compounds may be screened initially at two concentrations prior to determination of IC50 values. Screening results are expressed as percent inhibition at the concentrations of compound tested. For IC50 value determinations, compounds are tested at six concentrations in ten-fold serial dilutions with each concentration tested in triplicate. Results are expressed as IC50 values in micromolar. The assay is performed at a final concentration of 2% DMSO.

Recombinant MAPKAPK2, sequence (P49137 whole entry, species assumed): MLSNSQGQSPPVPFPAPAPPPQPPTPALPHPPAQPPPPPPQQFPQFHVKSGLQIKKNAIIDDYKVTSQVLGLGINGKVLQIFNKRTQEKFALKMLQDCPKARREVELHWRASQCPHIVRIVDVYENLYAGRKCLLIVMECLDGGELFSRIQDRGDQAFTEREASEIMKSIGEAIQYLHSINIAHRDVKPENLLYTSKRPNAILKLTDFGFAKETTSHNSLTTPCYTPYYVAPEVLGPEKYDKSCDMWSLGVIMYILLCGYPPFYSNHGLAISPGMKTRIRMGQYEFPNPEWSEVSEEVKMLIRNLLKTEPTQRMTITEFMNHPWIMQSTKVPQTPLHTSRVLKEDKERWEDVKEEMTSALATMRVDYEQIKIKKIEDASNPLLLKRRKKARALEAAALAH

Row | Compound | IC50
1 | N#Cc1c(N)nc2c(c1N)Cc1ccc(OCCO)cc1O2 [Example 10] | 0.483 µM
2 | N#Cc1c(N)nc2c(c1N)Cc1cc(N)ccc1O2 [Example 12] | 0.514 µM
3 | CCOCCOc1cc2c(cc1O)Cc1c(nc(N)c(C#N)c1N)O2 [Example 14] | 0.62 µM
4 | COc1ccc2c(c1O)Oc1nc(N)c(C#N)c(N)c1C2 [Example 15] | 0.682 µM
5 | N#Cc1c(N)nc2c(c1N)Cc1ccc(OCCN)cc1O2 [Example 19] | 0.82 µM
6 | N#Cc1c(N)nc2c(c1N)Cc1cc(C(=O)O)ccc1O2 [Example 20] | 0.857 µM
7 | N#Cc1c(N)nc2c(c1N)Cc1ccc(O)c(O)c1O2 [Example 21] | 0.857 µM
8 | N#Cc1c(N)nc2c(c1N)Cc1ccc(OCC(=O)O)cc1O2 [Example 23] | 0.916 µM
9 | COc1cccc2c1Oc1nc(N)c(C#N)c(N)c1C2 [Example 24] | 1.37 µM
10 | N#Cc1c(N)nc2c(c1N)Cc1ccc(OCCN3CCCC3)cc1O2 [Example 25] | 1.68 µM
11 | CNc1c(C#N)c(N)nc2c1Cc1cc(OC)c(OC)cc1O2 [Example 26] | 1.69 µM
12 | COc1ccc2c(c1)Oc1nc(N)c(C#N)c(N)c1C2 [Example 27] | 1.72 µM
13 | CN(C)CCOc1ccc2c(c1)Oc1nc(N)c(C#N)c(N)c1C2 [Example 28] | 1.75 µM
14 | COc1cc(N)cc2c1Oc1nc(N)c(C#N)c(N)c1C2 [Example 29] | 1.79 µM
15 | N#Cc1c(N)nc2c(c1N)Cc1cc(OCCN)c(OCCN)cc1O2 [Example 31] | 2.55 µM
16 | N#Cc1c(N)nc2c(c1N)Cc1cccc([N+](=O)[O-])c1O2 [Example 32] | 2.58 µM
17 | COc1ccc(Nc2c(C#N)c(N)nc3c2Cc2cc(OC)c(OC)cc2O3)cc1 [Example 33] | 2.98 µM
18 | COc1ccc2c(c1)Oc1nc(N)c(C#N)c(N)c1C2 [Example 34] | 3.24 µM
19 | N#Cc1c(N)nc2c(c1N)C(C(C#N)C#N)c1cc(O)ccc1O2 (stereo not shown) [Example 35] | 4.22 µM
20 | CCNc1c(C#N)c(N)nc2c1Cc1ccc(OCC)cc1O2 [Example 37] | 4.76 µM

Row | Compound | IC50
21 | COc1ccc(Nc2c(C#N)c(N)nc3c2Cc2cc(OC)c(OC)cc2O3)cc1 [Example 40] | 6.11 µM
22 | N#Cc1c(N)nc2c(c1N)Cc1ccc(CN3CCCCC3)c(O)c1O2 [Example 42] | 8.28 µM
23 | C=CCOc1cc2c(cc1OCC=C)Oc1nc(N)c(C#N)c(N)c1C2 [Example 43] | 9.6 µM
24 | CCOCCNc1c(C#N)c(N)nc2c1Cc1ccc(OCCOCC)cc1O2 [Example 44] | 9.66 µM
25 | CC(C)(C)OC(=O)COc1cc2c(cc1OCC(=O)OC(C)(C)C)Oc1nc(N)c(C#N)c(N)c1C2 [Example 45] | 10.3 µM
26 | COc1cc2c(cc1OC)Oc1nc(N)c(C#N)c(NCCN)c1C2 [Example 46] | 11.5 µM
27 | N#Cc1c(N)nc2c(c1N)Cc1cc(N)ccc1S2(=O)=O [Example 48] | 14.4 µM
28 | N#Cc1c(N)nc2c(c1N)Cc1cc(Br)ccc1O2 [Example 49] | 15.1 µM
29 | CCCNc1c(C#N)c(N)nc2c1Cc1cc(OC)c(OC)cc1O2 [Example 50] | 15.6 µM
30 | N#Cc1c(N)nc2c(c1N)Cc1cc(O)ccc1S2 [Example 51] | 17.4 µM
31 | CN(C)c1ccc2c(c1)Cc1c(nc(N)c(C#N)c1N)O2 [Example 52] | 17.6 µM
32 | COc1ccc2c(c1)Cc1c(nc(N)c(C#N)c1N)O2 [Example 53] | 19.7 µM
33 | COc1cccc2c1Oc1nc(N)c(C#N)c(N)c1C2C(C#N)C#N (stereo not shown) [Example 54] | 21.2 µM
34 | COc1cc2c(cc1OC)Oc1nc(N)c(C#N)c(NCc3ccccc3)c1C2 [Example 55] | 27.4 µM
35 | C=CCOc1ccc2c(c1)Oc1nc(N)c(C#N)c(N)c1C2 [Example 56] | 33.8 µM
36 | N#Cc1c(N)nc2c(c1N)Cc1cccc(F)c1S2 [Example 57] | 42.2 µM
37 | COc1ccc2c(c1)Cc1c(nc(N)c(C#N)c1N)O2 [Example 58] | 43 µM
38 | N#Cc1c(N)nc2c(c1N)Cc1cccc(OCCN3CCCC3)c1O2 [Example 59] | 45.2 µM
39 | N#Cc1c(N)nc2c(c1N)Cc1cc([N+](=O)[O-])ccc1O2 [Example 60] | 62.2 µM
40 | N#Cc1c(N)nc2c(c1N)Cc1cccc(OCC(=O)O)c1O2 [Example 62] | 72.2 µM

Same assay, conditions: MK-2 Avg. IC50, Table I, aminocyanopyridine MK-2 inhibitors

Row | Compound | IC50
41 | N#Cc1c(N)nc2c(c1-c1cccc(F)c1F)CCc1[nH]ncc1-2 [Example 3] | 1.95 µM
42 | N#Cc1c(N)nc2c(c1-c1ccco1)CCc1cc(C(=O)O)ccc1-2 [Example 5] | 2.35 µM
43 | N#Cc1c(-c2c[nH]c(C(N)=O)c2)cc(-c2ccco2)nc1N [Example 6] | 2.41 µM
44 | N#Cc1c(N)nc2c(c1-c1ccccc1)CCc1n[nH]cc1-2 [Example 7] | 2.73 µM
45 | Cn1cnc(-c2cc(-c3ccco3)nc(N)c2C#N)c1 [Example 8] | 2.88 µM
46 | N#Cc1c(N)nc2c(c1-c1ccco1)CCc1cc(O)ccc1-2 [Example 10] | 3.48 µM
47 | N#Cc1c(N)nc2c(c1-c1c(F)cccc1F)CCc1[nH]ncc1-2 [Example 11] | 3.59 µM
48 | N#Cc1c(-c2cnc[nH]2)cc(-c2ccc(O)cc2)nc1N [Example 12] | 3.62 µM
49 | N#Cc1c(-c2ccccc2F)cc(-c2ccco2)nc1N [Example 13] | 4.06 µM
50 | N#Cc1c(-c2ccccc2F)cc(-c2ccco2)nc1N [Example 14] | 4.41 µM
51 | N#Cc1c(N)nc2c(c1-c1ccccc1F)CCc1ccccc1-2 [Example 15] | 4.47 µM
52 | N#Cc1c(-c2ccco2)cc(-c2ccc(C(=O)O)cc2)nc1N [Example 16] | 4.63 µM
53 | N#Cc1c(-c2cnc[nH]2)cc(-c2ccco2)nc1N [Example 17] | 4.94 µM
54 | N#Cc1c(N)nc2c(c1-c1nnc[nH]1)CCc1cc(C(=O)O)ccc1-2 [Example 19] | 5.74 µM
55 | N#Cc1c(-c2cnc[nH]2)cc(-c2cccc(O)c2)nc1N [Example 20] | 5.81 µM
56 | N#Cc1c(-c2cnc[nH]2)cc(-c2ccco2)nc1N [Example 21] | 5.95 µM
57 | N#Cc1c(N)nc2c(c1N)CC(C(F)(F)F)O2 (stereo not shown) [Example 23] | 6.14 µM
58 | N#Cc1c(N)nc2c(c1-c1ccco1)CCc1c[nH]cc1-2 [Example 24] | 6.2 µM
59 | N#Cc1c(-c2ccccc2F)cc(-c2ccc(C(=O)O)cc2)nc1N [Example 25] | 6.4 µM
60 | N#Cc1c(N)nc2c(c1-c1ccco1)CCc1cnccc1-2 [Example 26] | 6.48 µM
61 | N#Cc1c(-c2ccccc2F)cc(-c2ccc(O)c(O)c2)nc1N [Example 27] | 7.54 µM
62 | Cn1cnc(-c2cc(-c3ccccc3)nc(N)c2C#N)c1 [Example 28] | 7.63 µM
63 | N#Cc1c(-c2ccco2)cc(-c2cc[nH]n2)nc1N [Example 29] | 7.72 µM
64 | N#Cc1c(-c2cnc[nH]2)cc(-c2ccc(C(=O)O)cc2)nc1N [Example 30] | 8.37 µM
65 | N#Cc1c(N)nc2c(c1-c1cccc(F)c1)CCc1n[nH]cc1-2 [Example 31] | 8.5 µM
66 | N#Cc1c(-c2ccccc2F)cc(-c2ccc(O)c(O)c2)nc1N [Example 32] | 9.2 µM

Row | Compound | IC50
67 | CS(=O)(=O)Nc1ccc(-c2cc(-c3ccco3)c(C#N)c(N)n2)cc1 [Example 33] | 9.27 µM
68 | N#Cc1c(N)nc2c(c1-c1ccco1)CCc1[nH]ccc1-2 [Example 34] | 9.4 µM
69 | N#Cc1c(-c2cnc[nH]2)cc(-c2ccccc2)nc1N [Example 35] | 9.4 µM
70 | N#Cc1c(N)nc2c(c1-c1ccco1)CCc1ccccc1-2 [Example 36] | 9.42 µM
71 | COc1ccc(-c2cc(-c3cnc[nH]3)c(C#N)c(N)n2)cc1 [Example 37] | 9.43 µM
72 | N#Cc1c(-c2ccco2)cc(-c2cn[nH]c2)nc1N [Example 39] | 11.6 µM
73 | COc1ccc(-c2c(C#N)c(N)nc3c2CCc2[nH]ncc2-3)cc1 [Example 40] | 12 µM
74 | N#Cc1c(N)nc2c(c1-c1ccc(F)cc1)CCc1n[nH]cc1-2 [Example 42] | 12.9 µM
75 | N#Cc1c(N)nc2c(c1-c1nnc[nH]1)CCc1ccccc1-2 [Example 43] | 13.1 µM
76 | N#Cc1c(N)nc2c(c1N)CC(CCl)O2 (stereo not shown) [Example 44] | 13.4 µM
77 | N#Cc1c(-c2cnc[nH]2)cc(-c2ccccc2)nc1N [Example 45] | 14.2 µM
78 | N#Cc1c(-c2ccco2)cc(-c2ccc(S(N)(=O)=O)cc2)nc1N [Example 46] | 16.1 µM
79 | N#Cc1c(-c2ccco2)cc(-c2ccc(B(O)O)cc2)nc1N [Example 47] | 16.7 µM
80 | COc1ccc(-c2cc(-c3nnc[nH]3)c(C#N)c(N)n2)cc1 [Example 48] | 17.3 µM
81 | N#Cc1c(-c2ccccc2F)cc(-c2ccoc2)nc1N [Example 49] | 17.9 µM
82 | CSc1cc(-c2ccco2)nc(N)c1C#N [Example 50] | 22.5 µM
83 | N#Cc1c(-c2ccccc2F)cc(-c2cccc(O)c2)nc1N [Example 51] | 24.2 µM
84 | N#Cc1c(-c2ccccc2Br)cc(-c2ccco2)nc1N [Example 53] | 26.1 µM
85 | N#Cc1c(-c2ccccc2)cc(-c2cccs2)nc1N [Example 55] | 26.9 µM
86 | COc1cccc(-c2c(C#N)c(N)nc3c2CCc2[nH]ncc2-3)c1 [Example 56] | 27.8 µM
87 | Cn1ncc2c1CCc1c-2nc(N)c(C#N)c1-c1ccco1 [Example 57] | 28.3 µM
88 | N#Cc1c(-c2ccccc2F)cc(-c2ccc[nH]2)nc1N [Example 58] | 29.3 µM
89 | CC1Cc2n[nH]cc2-c2nc(N)c(C#N)c(-c3ccco3)c21 (stereo not shown) [Example 59] | 31.3 µM
90 | Cn1ccc(-c2cc(-c3ccco3)c(C#N)c(N)n2)c1 [Example 60] | 32.1 µM
91 | CC(=O)Nc1ccc(-c2c(C#N)c(N)nc3c2CCc2[nH]ncc2-3)cc1 [Example 62] | 35.9 µM

Source: patent publication US20040127519A1 (Pharmacia Corporation, priority 2002, published 2004)
